This note sets out measurements from patent US11091429B2, “Organic compounds” (Givaudan SA, priority 2012, dated 2021).

Each structure is given as a SMILES string.

A short description of assay [1]: Tasting in low fat salad dressing. The following applies: 0.5 ppm in low fat salad dressing (13.6% fat). The procedure: (§1) The following formulations were prepared and tasted by trained panelists.
low fat salad dressing (13.6% Fat, 8%, carbohydrates (of which 5.3% sugar))
(§2) Samples were prepared and evaluated by expert tasters. Tasters were asked to describe the samples focusing on authentic taste, mouthfeel, fullness, salty-ness, salivation, umami, sweetness, juiciness, richness, long lastingness and fattiness.
Calve Salad Dressing Low Fat (13.6% Fat):
Base is Calve salad dressing (market product)
Samples were prepared and evaluated by expert tasters. Tasters were asked to describe the samples focusing on authentic taste, mouthfeel, fullness, salivation, salty-ness, umami, sweetness, juiciness, richness, long lastingness and fattiness.
Low fat salad dressing (13.6% Fat)

Assay [2] can be described thus: Tasting of chicken filet fried in oil. The method, then:
as §1
Differentiator high temperature 100-250 degrees Celsius in a frying in oil process
C18:2 gaba @ 2.0 PPM in 135 gram frying oil (blue band 82% Fat) 450 gram chicken filet 2 minutes high fire and 5 minutes medium fire.

Assay [3] in a line: Tasting in Activa strawberry yoghurt. The following applies: 2 ppm, 13.5% sugar, 3.2% fat. The source says: Activa Strawberry Yoghurt
In a Full fat, Activa strawberry flavoured yoghurt containing 13.5% sugar, 3.2% fat C18:2-gaba and C18:0-leu at 2 ppm

Assay [4] can be described thus: Tasting in vanilla flavoured milk 3.0% fat. As to conditions: 2 ppm, 4% sugar, vanillin 10 ppm, vanilla extract 0.03%. The method, then:
Vanilla Flavoured Milk 3.0% Fat
In a 3% fat milk drink, sweetened with 4% sucrose by weight, flavoured with Vaniline @ 10 ppm and a Vanilla extract @ 0.03% C18:2-gaba, C18:1-ACOA and C18:1-glu were added at 0.5 or 2 ppm.
(§3) Samples were evaluated by expert tasters. Tasters were asked to describe the samples focusing on authentic taste, mouthfeel, fullness, salivation, sweetness, juiciness, richness, long lastingness and fattiness.
Base: Milk 3% fat, 4% sugar, vanillin 10 ppm, vanilla extract 0.03%

A further assay is described as follows: Tasting in soy milk. The following applies: 2 ppm, soy milk (1.8% fat), 5% sucrose, milk flavour 0.1%. The procedure: In a soy milk (1.8% fat) sweetened with 5% sucrose by weight, flavoured with a proprietary milk flavour ata dosage of 0.1%, C18:2-gaba was added at 2 ppm
as §3

A short description of assay [5]: Tasting in mango still beverage, 6% clear mango juice. As to conditions: 1 ppm; 6% clear mango juice (full juice). The procedure: Mango Flavoured Still Beverage Containing Different Levels of Juice,
In a Mango flavoured still beverage, sweetened with 8% sucrose and containing 0.1% citric acid and 1%, 4% and 6% clear mango juice flavoured with a proprietary Mango flavour @ 0.05%, C18:2-gaba and C18:2-Pro were added, as such (separate) and in combination.
All samples were evaluated by expert tasters. Tasters were asked to describe the samples focusing on authentic taste, juicy mouthfeel, enhancement, richness, juiciness, long lastingness, salivation, sweetness.
In a Mango-flavoured still beverage, sweetened with 8% sucrose & containing 0.1% citric acid and 6% clear mango juice flavoured with Mango flavour@0.05%, C18:2-gaba and C18:2-Pro were added, as such (separate) and in combination.
Base is water, 8% sucrose, 0.1% citric acid, 6% clear mango juice (full juice), flavoured with Mango flavor, dosed at 0.05%.

Another assay in a line: Test on Breezer Orange. As to conditions: 0.5 ppm, 4% alcohol. The procedure:
Samples were evaluated by expert tasters. Tasters were asked to describe the samples focusing on authentic taste, alcohol impact, juiciness, mouthfeel, fullness, salivation, sweetness, bitterness, richness, long lastingness and fattiness.

Assay [6] in a line: Tasting in vanilla milk 0.15% fat. As to conditions: 2 ppm, 4% sucrose, Vaniline 10 ppm + vanilla extract 0.03%. A digest of the protocol:
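Expert panel tasted samples in 0.15% fat milk sweetened with 4% sucrose and flavoured with vaniline at 10 ppm plus vanilla extract at 0.03%. Descriptors covered authentic taste, mouthfeel, fullness, saltiness, salivation, umami, sweetness, juiciness, richness, long-lastingness and fattiness.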

A short description of assay [7]: Test in chocolate flavoured drink. The following applies: 2 ppm; water, 4% sucrose, chocolate flavour 0.03%. The method, then: as §2
Test in Chocolate Flavoured Drink:
Base: Water, 4% sucrose, proprietary chocolate flavor at 0.03%
(§4) Samples were evaluated by expert tasters. Tasters were asked to describe the samples focusing on authentic taste, mouthfeel, fullness, salty-ness, salivation, umami, sweetness, juiciness, richness, long lastingness and fattiness.
Test in Chocolate Flavoured Drink Flavoured
Base: Water, 4% sucrose, proprietary chocolate flavour @ 0.03%

Assay [8] is described as follows: Test in pear flavoured drink. The following applies: 1 ppm; water, 7% sugar (8% elsewhere in the source), 0.1% citric acid, pear flavour 0.025%. The procedure: as §2
Test in Pear Flavoured Drink:
Base: water, 7% sugar, 0.1% citric acid, proprietary pear flavour at 0.025%
as §4
Comparison in a Pear Drink
Base is water, 8% sugar, 0.1% citric acid, proprietary pear flavour at 0.025%

The next assay in a line: Test on mouthwash. The following applies: 1 ppm, Paradontax alcohol free mouthwash. The procedure:
as §4
Base: Paradontax alcohol free mouthwash.

For `CCCCC/C=C\C/C=C\CCCCCCCC(=O)NCCCC(=O)O` [C18:2-gaba], the tasting result was “much fuller, creamy, rich, less acidic” in [1]; “better mouthfeel that was impressively creamy” in assay [1] (listed as C18:2 gaba); “very creamy, full and fresh strawberry” in [3]; “beany, fatty, authentic, sweet” in assay [4]; “clean, creamy, good masking of the soy bean taste, creamy and milky” in “Tasting in soy milk”; “fatty skin-like, very thick juicy, authentic mango, long lasting mango taste, rich” in assay [5]. The tasting result in “Test on Breezer Orange” is “more alcoholic, sweeter, more juicy orange, less soapy”; in assay [6], “fatty, long lasting authentic vanilla, vanilla bean taste is enhanced”; in assay [7] it was “full, sweeter, more vanillic, milk chocolate is enhanced, very long lasting”; in assay [8], “long lasting, juicy and fatty skin like very authentic, like eating the fruit instead of drinking a drink”; in the assay “Test on mouthwash”, “much less bitter, very sweet, smooth, less burning, round spicy, more minty and more cooling”. In assay [2] (2.0 PPM in 135 gram frying oil (blue band 82% Fat)), the “taste of the frying oil” value is on record as “more savoury golden brown notes”. In [2] (2.0 PPM in 135 gram frying oil, 450 gram chicken filet, 2 minutes high fire and 5 minutes medium fire), the “taste of the chicken” value is listed as “more juicy, succulent, lingering more white meat”.
